Source: US10420737B2, “Hepatotoxicity-free pharmaceutical composition containing acetaminophen drugs” (NATIONAL DEFENSE EDUCATION AND RESEARCH FOUNDATION, priority 2013, dated 2019)
“And” between values parts separate entries of the source, which are not always exact repeats. Equal values may be shown once. “Also recorded” adds a separate entry of the source.

Legend:
[1] = test system: Male SD (Sprague-Dawley) rats; assay: APAP-induced hepatotoxicity in rats: histological liver tissue sections (Total HAI-score); conditions: for liver tissue sections, hepatocyte morphology (in words): liver protection groups + APAP 1000 mg/kg, H&E stain 200×, FIG. 2
[2] = test system: Male SD (Sprague-Dawley) rats; assay: APAP-induced hepatotoxicity in rats: plasma AST and ALT activity; assay type: in vivo, rat; conditions: for improvement of APAP liver damage (AST, ALT, GSP and Total HAI-score, in words): combined with APAP 1000 mg/kg, versus APAP hepatotoxicity group
Description: After completion of the treatments, rats were sacrificed under ether anesthesia, and blood was collected from the tail artery of the rats and placed in a test tube containing EDTA. The plasma was centrifuged at 13,000 at 4° C. for 15 minutes and the isolated plasma was transferred to Eppendorf tubes in aliquots and stored at −80° C.
Liver damage is quantified by measuring plasma AST and ALT activity. AST and ALT are common indicators of hepatotoxicity and are measured by using the Synchron LXi 725 system (Beckman Instruments, U.S.).

[3] = target: Cytochrome P450 2E1 (CYP2E1) (Rattus norvegicus, UniProt P05182); assay: In-vitro screening of CYP2E1 inhibitors in rat liver microsomes (chlorzoxazone 6-hydroxylation)
From the text: (§1) This example is preparation of microsomes from rat and human liver for in vitro screening of CYP2E1 inhibitors. A total of 55 safe and edible excipients are included in the screening for cytochrome P450 2E1 (CYP2E1) inhibitors. […] After addition of the test sample, the amount of CYP2E1 metabolite standard 6-OH—CZX (6-Hydroxy-Chlorzoxazone) is used for calculation of the CYP 2E1 inhibition ratio of the test sample by using the amount of 6-OH—CZX of the control group as the baseline.
(§2) Transfer to and pre-incubate the reaction mixture in a water bath at 37° C. for 1 minute. […] Incubate the sample for 1 minute and add internal standard (5 ug/mL 4-hydroxy-tobutamide).

[4] = target: Cytochrome P450 2E1 (CYP2E1) (Homo sapiens, UniProt P05181); assay: In-vitro screening of CYP2E1 inhibitors in human liver microsomes (chlorzoxazone 6-hydroxylation)
From the text: as §1, §2

[5] = test system: Male SD (Sprague-Dawley) rats; assay: APAP-induced hepatotoxicity in rats: galactose single point (GSP) residual liver function test; assay type: in vivo, rat; conditions: excipient 1.67 mg/kg + APAP 1000 mg/kg, single oral dose
Description: After the study was completed, all rats were subjected to GSP test. Rats were i.v. injected with 0.4 g/ml BW galactose solution 0.5 g/kg within 30 seconds and one blood sample was collected at 5, 10, 15, 30, 45 and 60 minutes post injection from the tail vein. Colorimetric galactose dehydrogenase is used to quantify the concentration of galactose and the test concentration ranges from 50 to 1,000 μg/ml. The within-day variation of each concentration is calculated using standard deviation and coefficient of variation (CV) and the maximum allowable coefficient of variation is 10% CV, whereas day-to-day variation is examined by comparing the slope and intercept of calibration curves. The GSP is the blood galactose concentration obtained 60 seconds after stopping the 30-second injection.

[6] = APAP alone, single oral dose 1000 mg/kg, plasma, mean ± SD, 1000 mg/kg
[7] = rat liver microsomes, test concentration 16.5 μM
[8] = rat liver microsomes, test concentration 33 μM
[9] = rat liver microsomes, test concentration 66 μM
[10] = rat, microsomes, 30 min, 0.024 %, pH 7.4
[11] = rat, microsomes, 30 min, 0.084 % (w/v), pH 7.4
[12] = rat, microsomes, 30 min, 0.167 % (w/v), pH 7.4
[13] = human liver microsomes, test concentration 16.5 μM
[14] = human liver microsomes, test concentration 33 μM
[15] = human liver microsomes, test concentration 66 μM
[16] = excipient 1.67 mg/kg + APAP 1000 mg/kg, single oral dose
[17] = rat, microsomes, 30 min, 16.5 μM, pH 7.4
[18] = rat, microsomes, 30 min, 33 μM, pH 7.4
[19] = rat, microsomes, 30 min, 66 μM, pH 7.4

Sequence of Cytochrome P450 2E1 (CYP2E1) (Homo sapiens, UniProt P05181) (P05181 whole entry): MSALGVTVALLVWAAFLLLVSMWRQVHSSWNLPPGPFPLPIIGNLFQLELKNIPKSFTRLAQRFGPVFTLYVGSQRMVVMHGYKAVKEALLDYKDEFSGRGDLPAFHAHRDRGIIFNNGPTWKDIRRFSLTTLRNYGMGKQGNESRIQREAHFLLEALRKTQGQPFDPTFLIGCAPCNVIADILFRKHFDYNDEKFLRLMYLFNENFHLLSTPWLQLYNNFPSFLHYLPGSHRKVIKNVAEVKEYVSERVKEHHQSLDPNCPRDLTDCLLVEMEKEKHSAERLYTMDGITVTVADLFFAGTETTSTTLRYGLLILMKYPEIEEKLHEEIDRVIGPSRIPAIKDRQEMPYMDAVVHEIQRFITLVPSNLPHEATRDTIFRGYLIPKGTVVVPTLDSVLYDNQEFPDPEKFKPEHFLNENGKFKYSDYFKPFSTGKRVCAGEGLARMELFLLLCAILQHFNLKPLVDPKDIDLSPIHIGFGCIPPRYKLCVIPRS
Sequence of Cytochrome P450 2E1 (CYP2E1) (Rattus norvegicus, UniProt P05182) (P05182 whole entry): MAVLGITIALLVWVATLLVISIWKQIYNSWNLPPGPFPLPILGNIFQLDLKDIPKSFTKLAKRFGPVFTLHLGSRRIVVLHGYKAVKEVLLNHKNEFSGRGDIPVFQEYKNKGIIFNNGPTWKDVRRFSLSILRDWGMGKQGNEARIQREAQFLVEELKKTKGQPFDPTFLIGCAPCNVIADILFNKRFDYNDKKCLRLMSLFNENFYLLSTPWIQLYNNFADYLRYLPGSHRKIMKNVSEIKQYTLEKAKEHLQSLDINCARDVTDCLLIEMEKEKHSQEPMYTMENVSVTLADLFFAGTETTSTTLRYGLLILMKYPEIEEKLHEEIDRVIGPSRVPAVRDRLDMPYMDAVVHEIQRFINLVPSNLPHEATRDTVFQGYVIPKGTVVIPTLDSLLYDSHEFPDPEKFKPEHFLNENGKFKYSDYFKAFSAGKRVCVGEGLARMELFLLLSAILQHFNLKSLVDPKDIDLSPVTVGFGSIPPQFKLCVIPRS

CC(=O)Nc1ccc(O)cc1 [APAP, N-acetyl-para-aminophenol, reference compound]
Total HAI-score ([1]; APAP alone, single oral dose 1000 mg/kg, mean ± SD): 4.9 ± 1.8 | ALT [2, 6]: 368±71 IU/L | AST [2, 6]: 499±112 IU/L

CC1=CC(=O)NS(=O)(=O)O1 [Acesulfame potassium]
CYP 2E1 inhibition ratio [3, 7]: 3.9 ± 2.7% | CYP 2E1 inhibition ratio [3, 8]: 7.1 ± 2.3% | CYP 2E1 inhibition ratio [3, 9]: 14.5 ± 1.9%

OCc1ccccc1 [Benzyl alcohol]
CYP 2E1 inhibition ratio [3, 10]: 8.2 ± 2.0% | CYP 2E1 inhibition ratio [3, 11]: 6.7 ± 1.0% | CYP 2E1 inhibition ratio [3, 12]: −10.3 ± 6.3%

O=C(O)CC(O)(CC(=O)O)C(=O)O [Citric acid]
CYP 2E1 inhibition ratio [3, 7]: 7.5 ± 2.3% | CYP 2E1 inhibition ratio [3, 8]: 12.4 ± 2.2% | CYP 2E1 inhibition ratio [3, 9]: 27.6 ± 3.6% | CYP 2E1 inhibition ratio [4, 13]: 9.9 ± 3.1% | CYP 2E1 inhibition ratio [4, 14]: 15.5 ± 1.5% | CYP 2E1 inhibition ratio [4, 15]: 20.5 ± 1.8%

CCN(CC)C(=S)S [DDTC, Diethyldithiocarbamic acid, reference compound]
CYP 2E1 inhibition ratio ([3]; rat liver microsomes, test concentration 10 μM): 8.6 ± 1.1% | CYP 2E1 inhibition ratio ([3]; rat liver microsomes, test concentration 50 μM): 50.4 ± 1.1% | CYP 2E1 inhibition ratio ([3]; rat liver microsomes, test concentration 100 μM): 89.2% and 89.2 ± 2.2% | CYP 2E1 inhibition ratio ([4]; human, microsomes, 30 min, 10 μM, pH 7.4): 7.3 ± 1.0% | CYP 2E1 inhibition ratio ([4]; human, microsomes, 30 min, 50 μM, pH 7.4): 49.8 ± 2.9% | CYP 2E1 inhibition ratio ([4]; human, microsomes, 30 min, 100 μM, pH 7.4): 89.6 ± 0.9%

O.O.O=P([O-])([O-])O.[Ca+2] [Dicalcium phosphate dihydrate]
Total HAI-score [1, 16]: 3.1 ± 1.1 | liver tissue sections, hepatocyte morphology (in words) ([1]; single oral dose): except for the dicalcium phosphate group | GSP ([5]; phosphate dihydrate): 444 ± 60 mg/L | CYP 2E1 inhibition ratio [3, 7]: 55.0 ± 4.6% | CYP 2E1 inhibition ratio [3, 8]: 62.0 ± 2.6% | CYP 2E1 inhibition ratio [3, 9]: 76.7 ± 0.8% | improvement of APAP liver damage (AST, ALT, GSP and Total HAI-score, in words) [2]: not as expected | ALT [2, 16]: 196 ± 65 IU/L | AST [2, 16]: 315 ± 42 IU/L | CYP 2E1 inhibition ratio [4, 13]: 31.2 ± 2.9% | CYP 2E1 inhibition ratio [4, 14]: 56.8 ± 2.2% | CYP 2E1 inhibition ratio [4, 15]: 60.1 ± 0.3%

CCCCCCCCCCCCCCCCCCCCCC(=O)OCC(O)CO (stereo not drawn) [Glyceryl behenate]
CYP 2E1 inhibition ratio [3, 17]: 3.1 ± 0.2% | CYP 2E1 inhibition ratio [3, 18]: 3.1 ± 2.5% | CYP 2E1 inhibition ratio [3, 19]: 8.2 ± 2.0%

O.OC[C@H]1O[C@@H](O[C@H]2[C@H](O)[C@@H](O)C(O)O[C@@H]2CO)[C@H](O)[C@@H](O)[C@H]1O (stereo partly drawn) [Lactose monohydrate]
CYP 2E1 inhibition ratio [3, 17]: 3.9 ± 2.3% | CYP 2E1 inhibition ratio [3, 18]: 7.8 ± 2.2% | CYP 2E1 inhibition ratio [3, 19]: 8.7 ± 3.8%

OC[C@@H](O)[C@@H](O)[C@H](O)[C@H](O)CO [Mannitol]
Total HAI-score [1, 16]: 0.8 ± 0.3 | liver tissue sections, hepatocyte morphology (in words) ([1]; single oral dose): more intact around the central vein and have a apparent nucleus with less vacuolization; also recorded: hepatocytes are relatively intact with visible nucleus and less vacuolization | GSP [5]: 253 ± 29 mg/L | CYP 2E1 inhibition ratio [3, 17]: 40.9 ± 2.8% | CYP 2E1 inhibition ratio [3, 18]: 51.0 ± 2.7% | CYP 2E1 inhibition ratio [3, 19]: 60.6 ± 3.3% | improvement of APAP liver damage (AST, ALT, GSP and Total HAI-score, in words) [2]: significant decrease | ALT [2, 16]: 79 ± 34 IU/L | AST [2, 16]: 201 ± 30 IU/L | CYP 2E1 inhibition ratio ([4]; human, microsomes, 30 min, 16.5 μM, pH 7.4): 44.8 ± 1.8% | CYP 2E1 inhibition ratio ([4]; human, microsomes, 30 min, 33 μM, pH 7.4): 51.2 ± 2.1% | CYP 2E1 inhibition ratio ([4]; human, microsomes, 30 min, 66 μM, pH 7.4): 54.5 ± 4.2%

CC1CCC(C(C)C)C(O)C1 (stereo not drawn) [Menthol]
Total HAI-score [1, 16]: 11 ± 1.2 | liver tissue sections, hepatocyte morphology (in words) ([1]; single oral dose): more intact around the central vein and have a apparent nucleus with less vacuolization; also recorded: hepatocytes are relatively intact with visible nucleus and less vacuolization | GSP [5]: 289 ± 20 mg/L | CYP 2E1 inhibition ratio [3, 7]: 7.2 ± 2.9% | CYP 2E1 inhibition ratio [3, 8]: 15.3 ± 7.9% | CYP 2E1 inhibition ratio [3, 9]: 36.4 ± 0.3% | improvement of APAP liver damage (AST, ALT, GSP and Total HAI-score, in words) [2]: significant decrease | ALT [2, 16]: 109 ± 23 IU/L | AST [2, 16]: 187 ± 21 IU/L | CYP 2E1 inhibition ratio [4, 13]: 10.5 ± 0.4% | CYP 2E1 inhibition ratio [4, 14]: 20.8 ± 2.1% | CYP 2E1 inhibition ratio [4, 15]: 30.8 ± 0.3%

COC(=O)c1ccc(O)cc1 [Methylparaben]
CYP 2E1 inhibition ratio [3, 17]: 4.6 ± 3.2% | CYP 2E1 inhibition ratio [3, 18]: −14.6 ± 4.1% | CYP 2E1 inhibition ratio [3, 19]: −21.5 ± 2.0%

CCCOC(=O)c1ccc(O)cc1 [Propylparaben]
CYP 2E1 inhibition ratio [3, 17]: −4.1 ± 1.2% | CYP 2E1 inhibition ratio [3, 18]: −17.2 ± 2.4% | CYP 2E1 inhibition ratio [3, 19]: −27.3 ± 3.7%

O=C1NS(=O)(=O)c2ccccc21 [Saccharin]
CYP 2E1 inhibition ratio [3, 7]: 35.3 ± 2.0% | CYP 2E1 inhibition ratio [3, 8]: 59.6 ± 3.3% | CYP 2E1 inhibition ratio [3, 9]: 67.4 ± 3.9% | CYP 2E1 inhibition ratio [4, 13]: 29.4 ± 2.7% | CYP 2E1 inhibition ratio [4, 14]: 51.2 ± 0.9% | CYP 2E1 inhibition ratio [4, 15]: 78.5 ± 2.1%

O=C([O-])c1ccccc1.[Na+] [Sodium benzoate]
CYP 2E1 inhibition ratio [3, 7]: 7.1 ± 2.0% | CYP 2E1 inhibition ratio [3, 8]: 7.8 ± 4.1% | CYP 2E1 inhibition ratio [3, 9]: 15.8 ± 0.9%

CCCCCCCCCCCCOS(=O)(=O)[O-].[Na+] [Sodium lauryl sulfate]
CYP 2E1 inhibition ratio [3, 7]: 4.6 ± 1.1% | CYP 2E1 inhibition ratio [3, 8]: 6.4 ± 0.9% | CYP 2E1 inhibition ratio [3, 9]: 4.8 ± 1.2%

C/C=C/C=C/C(=O)O [Sorbic acid]
CYP 2E1 inhibition ratio [3, 7]: 12.1 ± 5.7% | CYP 2E1 inhibition ratio [3, 8]: 13.2 ± 4.4% | CYP 2E1 inhibition ratio [3, 9]: 19.0 ± 5.6% | CYP 2E1 inhibition ratio [4, 13]: 8.4 ± 1.6% | CYP 2E1 inhibition ratio [4, 14]: 10.9 ± 2.7% | CYP 2E1 inhibition ratio [4, 15]: 14.8 ± 0.1%

OC[C@@H](O)[C@@H](O)[C@H](O)[C@@H](O)CO [Sorbitol]
CYP 2E1 inhibition ratio [3, 10]: 6.4 ± 0.5% | CYP 2E1 inhibition ratio [3, 11]: 5.6 ± 0.5% | CYP 2E1 inhibition ratio [3, 12]: 16.1 ± 0.7%

Magnesium stearate
CYP 2E1 inhibition ratio [3, 7]: 2.0 ± 1.0% | CYP 2E1 inhibition ratio [3, 8]: 3.0 ± 0.7% | CYP 2E1 inhibition ratio [3, 9]: 5.0 ± 1.6%
